Source: patent EP0087751B1, “Water-soluble peptides from very poorly soluble amino acids” (PFRIMMER KABI GMBH & CO. KG, priority 1982, dated 1985)
≈ marks a conversion by molar mass, not a printed value. Where a SMILES comes first, the peptide text is derived from it.

Key:
Solubility in water [1] = type: physicochemical; conditions: for Löslichkeit: in water
Solubility in water [2] = assay: Solubility in water

With `N[C@@H](Cc1ccc(O)cc1)C(=O)NCCCC[C@H](NC(=O)[C@@H](N)Cc1ccc(O)cc1)C(=O)O` [N^2-Tyrosinyl-N^6-tyrosinyl-lysin, N^2-Tyrosinyl-N^6-L-tyrosinyl-L-lysin] (H-Tyr-Lys(Tyr)-OH) as the molecule, how does the Löslichkeit (Solubility in water [1]; temperature not stated) read?
The Löslichkeit was 622 g/L H20.

And the “Faktor besser löslich in Wasser als das freie Tyrosin” value (Solubility in water [1]; ratio of water solubility of the tripeptide to that of free Tyrosin)?
The value was 1,62 . 10^3.

For `N[C@@H](CSSC[C@H](N)C(=O)O)C(=O)O` [Cystin], which solubility (Solubility in water [2]) is on record?
The solubility was 0.09 mg/mL (≈ 0.375 mM).

With “N^2-Cystinyl-N^6-L-cystinyl-L-lysin [N^2,N^6-Di-L-cystinyl, L-lysin]” as the molecule, how does the Löslichkeit (Solubility in water [1]; 20°C) read?
The Löslichkeit was 125 g/L H20.

With `NCCCC[C@H](N)C(=O)O` [Lysin] as the molecule, how does the solubility (Solubility in water [2]) read?
Its solubility is 666 mg/mL (≈ 4560 mM).
